Converted amounts (≈) assume the structure as drawn.
Columns and labels:
[1] = system: Staphylococcus aureus; test: Antibacterial activity against methicillin-resistant Staphylococcus aureus […] assessed as reduction in bacterial growth measured under non-photodynamic inactivation condition; assay type: functional; settings: light or radiation study
[2] = system: Staphylococcus aureus; test: Antibacterial activity against methicillin-sensitive Staphylococcus aureus ATCC 29213 assessed as reduction in bacterial growth measured under non-photodynamic inactivation condition; assay type: functional; settings: ATCC 29213, light or radiation study

SMILES	MIC [1]	MIC [2]
Cc1ccc(-c2c3nc(c(-c4cc(C(=O)O)cc(C(=O)O)c4)c4ccc([nH]4)c4ccc([nH]4)c(-c4cc(C(=O)O)cc(C(=O)O)c4)c4ccc2[nH]4)C=C3)cc1	12.5 µg/mL (≈ 17.4 µM)	12.5 µg/mL (≈ 17.4 µM)
Cc1ccc(-c2c3nc(c(-c4ccc(C(=O)O)cc4)c4ccc([nH]4)c(-c4ccc(C)cc4)c4ccc([nH]4)c4ccc2[nH]4)C=C3)cc1	100 µg/mL (≈ 167 µM)	100 µg/mL (≈ 167 µM)
O=C(O)c1ccc(-c2c3nc(c(-c4ccc(C(=O)O)cc4)c4ccc([nH]4)c4ccc([nH]4)c(-c4ccc(C(=O)O)cc4)c4ccc2[nH]4)C=C3)cc1	100 µg/mL (≈ 152 µM)	100 µg/mL (≈ 152 µM)
O=S(=O)(O)CCNc1c(F)c(F)c(-c2c3nc(c(-c4c(F)c(F)c(NCCS(=O)(=O)O)c(F)c4F)c4ccc([nH]4)c4ccc([nH]4)c(-c4c(F)c(F)c(NCCS(=O)(=O)O)c(F)c4F)c4ccc2[nH]4)C=C3)c(F)c1F	100 µg/mL (≈ 89.9 µM)	> 100 µg/mL
Cc1c(C(=O)O)[nH]c(C(c2ccccc2)c2[nH]c(C(=O)O)c(C)c2C)c1C	50 µg/mL (≈ 136 µM)	100 µg/mL (≈ 273 µM)
Fc1cc(F)c(F)c(-c2c3nc(c(-c4c(F)c(F)c(F)c(F)c4F)c4ccc([nH]4)c(-c4c(F)c(F)cc(F)c4F)c4ccc([nH]4)c4ccc2[nH]4)C=C3)c1F	12.5 µg/mL (≈ 16.4 µM)	25 µg/mL (≈ 32.9 µM)
O=C(O)c1ccc(C(c2ccc[nH]2)c2ccc[nH]2)cc1	50 µg/mL (≈ 188 µM)	50 µg/mL (≈ 188 µM)
CO[C@@]1(NC(=O)Cc2cccs2)C(=O)N2C(C(=O)O)=C(COC(N)=O)CS[C@@H]21 [CEFOXITIN]	25 µg/mL (≈ 58.5 µM)	3.12 µg/mL (≈ 7.3 µM)
CN[C@H](CC(C)C)C(=O)N[C@H]1C(=O)N[C@@H](CC(N)=O)C(=O)N[C@H]2C(=O)N[C@H]3C(=O)N[C@H](C(=O)N[C@H](C(=O)O)c4cc(O)cc(O)c4-c4cc3ccc4O)[C@H](O)c3ccc(c(Cl)c3)Oc3cc2cc(c3O[C@@H]2O[C@H](CO)[C@@H](O)[C@H](O)[C@H]2O[C@H]2C[C@](C)(N)[C@H](O)[C@H](C)O2)Oc2ccc(cc2Cl)[C@H]1O [VANCOMYCIN]	0.39 µg/mL (≈ 0.269 µM)	0.39 µg/mL (≈ 0.269 µM)
